Marks after values point to notes of the source that are not given here.
Columns and labels:
Assay type in all cases: in vivo
[1] = system: PD-LID rat model (6-OHDA-lesioned rats); test: Dyskinesia-like symptoms (AIMs score) after transdermal tandospirone tape agent in PD-LID rat model
Excerpt: A rat striatum dopaminergic denervation model using topical administration of 6-hydroxydopamine (hereinafter, also referred to as “6-OHDA”) to one side of the brain is known as a typical experimental model for PD-LID (rats treated on one side with 6-OHDA (6-OHDA-lesioned rats)). Dyskinesia-like abnormal involuntary movements (AIMs) manifest in said model with repeated administration of levodopa (Lundblad et al., European Journal of Neuroscience, 2002, 15: 120-132, Winkler et al., Neurobiology of Disease, 2002, 10: 165-186).
Wistar male rats (12-week old, Japan SLC, Inc.) were used for the preparation of animal models. Desipramine hydrochloride (25 mg/kg; Wako Pure Chemical) was intraperitoneally administered. After 30 minutes from the administration, the rats were subjected to isoflurane inhalational anesthetic using a general anesthesia apparatus for experimental animals. Under isoflurane anesthesia, the rats were immobilized to a brain stereotaxic instrument. The skin on the head was incised with a surgical scalpel to expose the skull. The coordinates of the bregma used as the origin (AP: 0, ML: 0, DV: 0) was determined, and the coordinates of the right medial forebrain bundle (AP: −4.4 mm, ML: 1.5 mm, DV: 7.8 mm from bregma) were measured. After inserting an injection tube for administration at the measured coordinates, 6-OHDA (9 μg/4 μL; Sigma-Aldrich) inducing dopaminergic denervation was topically injected. After 2 weeks from surgery, apomorphine hydrochloride hemihydrate (0.5 mg/kg; Wako Pure Chemical) was subcutaneously administered, and the rotation movement to the opposite side from the 6-OHDA injected site was observed. Rats with 7 rotations or more per minute were used as rats treated on one side with 6-OHDA.
To make a PD-LID model, a mixture of levodopa methyl ester hydrochloride (6 mg/kg; Sigma-Aldrich) dissolved in saline and benserazide hydrochloride (15 mg/kg; Sigma-Aldrich) (hereinafter, also referred to as “levodopa containing solution”) was intraperitoneally administered once daily to 6-OHDA-lesioned rats. The levodopa containing solution was repeated administered for 3 weeks or longer to observe and evaluate the behavior. The behavior was observed and evaluated in a transparent acrylic cage for 1 minute every 20 minutes after 20 minutes from the intraperitoneal administration of the levodopa containing solution, up until after 3 hours from administration. […] The sum of the scores for Limb AIMs, Axial AIMs, and Orolingual AIMs in 3 hours was used as the total AIMs score. Individuals with a total AIMs score of less than 10 were excluded from the test as not manifesting a dyskinesia-like symptom. […] The rats were assigned to each dosing group by using the 3 hour AIMs score, Locomotive behavior score, and rat body weight as indicators, which were used for evaluation of drugs.
When evaluating a tape agent, the hair on the abdominal region of rats was shaved before the evaluation date. […] After 4 hours from application, a levodopa containing solution was intraperitoneally administered to observe and evaluate the behavior. Individuals with 50% or more of the tape agent coming off during the test were excluded from analysis.
After 4 hours from application, a levodopa containing solution was intraperitoneally administered to observe and evaluate the behavior. Individuals with 50% or more of the tape agent coming off during the test were excluded from analysis.
When evaluating dyskinesia-like symptoms, the sum of the Limb AIMs, Axial AIMs, and Orolingual AIMs at each evaluation point was used as the AIMs score.

[2] = system: PD-LID rat model (6-OHDA-lesioned rats); test: ON-time prolongation action (ON score, ON time without dyskinesia) in PD-LID rat model; conditions: oral 100 mg/kg as citrate
Experimental: To make a PD-LID rat model, a mixture of levodopa methyl ester hydrochloride (6 mg/kg; Sigma-Aldrich) dissolved in saline and benserazide hydrochloride (15 mg/kg; Sigma-Aldrich) (hereinafter, also referred to as “levodopa containing solution”) was intraperitoneally administered once daily to 6-OHDA-lesioned rats. The levodopa containing solution was repeatedly administered for 3 weeks or longer to observe and evaluate the behavior. […] The sum of the scores for Limb AIMs, Axial AIMs, and Orolingual AIMs in 3 hours was used as the total dyskinesia-like symptom (AIMs) score. Individuals with a total AIMs score of less than 10 were excluded from the test as not manifesting a dyskinesia-like symptom. The behavior was observed and evaluated before the drug evaluation date. The rats were assigned to each dosing group by using the 3 hour total dyskinesia-like symptom (AIMs) score, Locomotive behavior score, and rat body weight as indicators, which were used for evaluation of drugs. For an indicator of dyskinesia behavior, the sum of the Limb AIMs, Axial AIMs, and Orolingual AIMs at each evaluation point was used as the AIMs score. For the rotational behavior (ON score), Locomotive behavior at each evaluation point was used as an indicator. The total ON score in 3 hours was used as the total ON score. For ON time without dyskinesia, the period during which the AIMs score is 0 and Locomotive behavior is 1 or greater at each evaluation point was added. Duration of action of levodopa without a dyskinesia symptom (ON time without dyskinesia) refers to the aggregate time with no dyskinesia during the antiparkinsonian action effective time, i.e., “ON-time”, and defined as the time during which the dyskinesia symptom (AIMs) score is 0 and the rotational behavior (Locomotive behavior) score is 1 or greater at each evaluation point after levodopa administration. […] After 5 minutes, a levodopa containing solution was intraperitoneally administered, and the behavior was observed and evaluated. The results in the drawings are indicated in terms of mean value±standard error. The test results were statistically analyzed by comparison with the solvent administration group using the Steel test with the total ON score in 3 hours or ON time without dyskinesia as an indicator. ** indicates p<0.01, meaning that there is a significant difference. For evaluation of a tape agent, the abdominal regions of the rats were shaved prior to the evaluation date. […] After 4 hours from application, a levodopa containing solution was intraperitoneally administered to observe and evaluate the behavior. The results in the drawings are indicated in terms of mean value±standard error. Individuals with 50% or more of the tape agent coming off during the test were excluded from analysis. The test results were statistically analyzed by comparison with the placebo tape administration group using Wilcoxon rank sum test with the total ON score in 3 hours or ON time without dyskinesia as an indicator. * indicates p<0.05 and ** indicates […], meaning that there is a significant difference compared to the solvent oral administration group or the placebo tape administration group.

[3] = system: rat Vogel conflict test model; test: Rat Vogel conflict test model (anxiolytic action); conditions: non-clinical models, PD-LID effect in 6-OHDA-lesioned rats
Experimental: The anxiolytic action was evaluated using a rat Vogel conflict test model, and the effect on PD-LID was evaluated in 6-OHDA-lesioned rats.

[4] = transdermal condition 1, 37 mg/kg, no stripping
[5] = transdermal condition 2, 45 mg/kg, with stripping

## O=C1[C@@H]2[C@H]3CC[C@H](C3)[C@@H]2C(=O)N1CCCCN1CCN(c2ncccn2)CC1 [tandospirone, (1R,2S,3R,4S)—N-[4-{4-(pyrimidine-2-yl)piperadine-1-yl}butyl]-2,3-bicyclo[2.2.1]heptanedicarboximide]
[1]; transdermal condition 1 (no stripping), 37 mg/kg
  difference (decrease) in total AIMs score in 3 hours, placebo tape agent minus tandospirone: 17.7**
[1]; [4]
  (ii) Indicator of rebound symptom of dyskinesia, in words: No effect
  (ii) Indicator of rebound symptom of dyskinesia: difference in total AIMs score in 100 to 180 minutes (placebo minus tandospirone): −0.1
[1]; transdermal condition 2 (with stripping), 45 mg/kg
  difference (decrease) in total AIMs score in 3 hours, placebo tape agent minus tandospirone: 27.1**
[1]; [5]
  (ii) Indicator of rebound symptom of dyskinesia, in words: No effect
  (ii) Indicator of rebound symptom of dyskinesia: difference in total AIMs score in 100 to 180 minutes (placebo minus tandospirone): 0.9
[2]
  ON-time without dyskinesia for 180 minutes (Locomotive behavior ≥1, and AIMs score=0): prolongation of ON time without dyskinesia was observed only at a dose at which there is a risk of side effects
[3]
  anxiolytic action compared with effect on PD-LID: exerted at the same dosage
